Data taken from patent US6472348B1, “Pyridone derivatives and herbicides” (Kumiai Chemical Industry Co., Ltd., priority 1996, dated 2002).

What was measured:
[1] = system: bulrush (Sc); test: Test Example 1: herbicidal effects by paddy field soil treatment; assay type: in vivo; settings: 100 g of the active ingredient per 10 ares, 21st day after the application, index 0-5 of Table 47;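 note: grade of growth control; 5 = at least 90%; 4 = 70 to 90%; 3 = 50 to 70%; 2 = 30 to 50%; 1 = 10 to 30%; 0 = under 10%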
How it was run: (§1)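 Herbicidal effect was scored against a graded standard 21 days after treatment. Seeds were sown in puddled, leveled paddy soil flooded to 3 cm depth, and the active ingredient was applied at 100 g per 10 ares before greenhouse culture.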

[2] = system: barnyardgrass (Ec); test: as above; assay type: in vivo; settings: 100 g of the active ingredient per 10 ares, 21st day after the application, index 0-5 of Table 47
How it was run: as §1

[3] = system: monochoria (Mo); test: as above; assay type: in vivo; settings: 100 g of the active ingredient per 10 ares, 21st day after the application, index 0-5 of Table 47;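 note: grade of growth control; 5 = at least 90%; 4 = 70 to 90%; 3 = 50 to 70%; 2 = 30 to 50%; 1 = 10 to 30%; 0 = under 10%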
How it was run: as §1

[4] = system: barnyardgrass (Ec); test: Test Example 3: herbicidal effects by upland field foliage treatment; assay type: in vivo; parameters: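 grade of growth control; 5 = at least 90%; 4 = 70 to 90%; 3 = 50 to 70%; 2 = 30 to 50%; 1 = 10 to 30%; 0 = under 10%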
How it was run: (§2)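 Readout: visual herbicidal rating per defined standards, 14th day after treatment. Plants sown in sand (pot area 120 cm^2), soil-covered, greenhouse-cultured for 2 weeks prior to foliage application, then greenhouse-grown until scoring.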

[5] = system: slender amaranth (Am); test: as above; assay type: in vivo; parameters: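 grade of growth control; 5 = at least 90%; 4 = 70 to 90%; 3 = 50 to 70%; 2 = 30 to 50%; 1 = 10 to 30%; 0 = under 10%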
How it was run: as §2

[6] = system: common lambsquarters (Ch); test: as above; assay type: in vivo; parameters: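 grade of growth control; 5 = at least 90%; 4 = 70 to 90%; 3 = 50 to 70%; 2 = 30 to 50%; 1 = 10 to 30%; 0 = under 10%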
How it was run: as §2

[7] = system: Diaitaria ciliaris (Di); test: as above; assay type: in vivo; parameters: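 grade of growth control; 5 = at least 90%; 4 = 70 to 90%; 3 = 50 to 70%; 2 = 30 to 50%; 1 = 10 to 30%; 0 = under 10%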
How it was run: as §2

[8] = system: pale smartweed (Po); test: as above; assay type: in vivo; parameters: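 grade of growth control; 5 = at least 90%; 4 = 70 to 90%; 3 = 50 to 70%; 2 = 30 to 50%; 1 = 10 to 30%; 0 = under 10%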
How it was run: as §2

[9] = system: rice flatsedge (Ci); test: as above; assay type: in vivo; parameters: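 grade of growth control; 5 = at least 90%; 4 = 70 to 90%; 3 = 50 to 70%; 2 = 30 to 50%; 1 = 10 to 30%; 0 = under 10%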
How it was run: as §2

[10] = system: barnyardgrass (Ec); test: Test Example 2: herbicidal effects by upland field soil treatment; assay type: in vivo; settings: 100 g of the active ingredient per 10 ares;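 note: grade of growth control; 5 = at least 90%; 4 = 70 to 90%; 3 = 50 to 70%; 2 = 30 to 50%; 1 = 10 to 30%; 0 = under 10%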
From the text: (§3) (Test on Herbicidal Effects by Upland Field Soil Treatment)

[11] = system: slender amaranth (Am); test: as above; assay type: in vivo; settings: 100 g of the active ingredient per 10 ares
From the text: as §3

[12] = system: common lambsquarters (Ch); test: as above; assay type: in vivo; settings: 100 g of the active ingredient per 10 ares
From the text: as §3

[13] = system: Digitaria ciliaris (Di); test: as above; assay type: in vivo; settings: 100 g of the active ingredient per 10 ares;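 note: grade of growth control; 5 = at least 90%; 4 = 70 to 90%; 3 = 50 to 70%; 2 = 30 to 50%; 1 = 10 to 30%; 0 = under 10%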
From the text: as §3

[14] = system: pale smartweed (Po); test: as above; assay type: in vivo; settings: 100 g of the active ingredient per 10 ares
From the text: as §3

[15] = system: rice flatsedge (Ci); test: as above; assay type: in vivo; settings: 100 g of the active ingredient per 10 ares
From the text: as §3

[16] = 100 g of the active ingredient per 10 ares, evaluated on the 14th day after treatment
[17] = 21st day after the application, index 0-5 of Table 47
[18] = evaluated on the 21st day after application
[19] = 100 g active ingredient per 10 ares, evaluated 14th day after treatment

## Cn1c(C(F)(F)F)ccc(-c2ccc(Cl)cc2F)c1=O [Compound No. 1-2, 3-(4-chloro-2-fluorophenyl)-1-methyl-6-trifluoromethyl-2(1H)-pyridone]
other
  melting point: 103 to 104 °C
[1]
  Herbicidal effects Sc: 5
[2]
  Herbicidal effects Ec: 5
[3]
  Herbicidal effects Mo: 5
[4]; [16]
  Herbicidal effects Ec: 5
[5]; [16]
  Herbicidal effects Am: 5
[6]; [16]
  Herbicidal effects Ch: 5
[7]; [16]
  Herbicidal effects Di: 5
[8]; [16]
  Herbicidal effects Po: 5
[9]; [16]
  Herbicidal effects Ci: 5
[10]; [17]
  Herbicidal effects Ec: 5
[11]; [17]
  Herbicidal effects Am: 5
[12]; [17]
  Herbicidal effects Ch: 5
[13]; [17]
  Herbicidal effects Di: 5
[14]; [17]
  Herbicidal effects Po: 5
[15]; [17]
  Herbicidal effects Ci: 5

## Nn1c(C(F)(F)F)ccc(-c2ccc(Cl)cc2Cl)c1=O [Compound No. 1-5, 1-amino-3-(2,4-dichlorophenyl)-6-trifluoromethyl-2(1H)-pyridone]
other
  melting point: 98 to 100 °C
[1]
  Herbicidal effects Sc: 5
[2]
  Herbicidal effects Ec: 5
[3]
  Herbicidal effects Mo: 5
[4]; [16]
  Herbicidal effects Ec: 5
[5]; [16]
  Herbicidal effects Am: 5
[6]; [16]
  Herbicidal effects Ch: 5
[7]; [16]
  Herbicidal effects Di: 5
[8]; [16]
  Herbicidal effects Po: 5
[9]; [16]
  Herbicidal effects Ci: 5
[10]; [17]
  Herbicidal effects Ec: 5
[11]; [17]
  Herbicidal effects Am: 5
[12]; [17]
  Herbicidal effects Ch: 5
[13]; [17]
  Herbicidal effects Di: 5
[14]; [17]
  Herbicidal effects Po: 5
[15]; [17]
  Herbicidal effects Ci: 5

## Cn1c(C(F)(F)F)ccc(-c2ccc(F)cc2F)c1=O [Compound No. 1-12, 3-(2,4-difluorophenyl)-1-methyl-6-trifluoromethyl-2(1H)-pyridone]
other
  melting point: 123 to 124 °C
[1]
  Herbicidal effects Sc: 5
[2]
  Herbicidal effects Ec: 5
[3]
  Herbicidal effects Mo: 5

## Cn1c(C(F)(F)F)ccc(-c2cc([N+](=O)[O-])c(Cl)cc2F)c1=O [Compound No. 1-58, 3-(4-chloro-2-fluoro-5-nitrophenyl)-1-methyl-6-trifluoromethyl-2(1H)-pyridone]
other
  melting point: 139 to 140 °C
[1]
  Herbicidal effects Sc: 5
[2]
  Herbicidal effects Ec: 5
[3]
  Herbicidal effects Mo: 5

## Cn1c(C(F)(F)F)ccc(-c2cc(S(C)(=O)=O)c(Cl)cc2F)c1=O [Compound No. 1-73, 3-(4-chloro-2-fluoro-5-methylsulfonylphenyl)-1-methyl-6-trifluoromethyl-2(1H)-pyridone]
other
  melting point: 144 to 145 °C
[1]
  Herbicidal effects Sc: 5
[2]
  Herbicidal effects Ec: 5
[3]
  Herbicidal effects Mo: 5
[10]; [17]
  Herbicidal effects Ec: 4
[11]; [17]
  Herbicidal effects Am: 5
[12]; [17]
  Herbicidal effects Ch: 5
[13]; [17]
  Herbicidal effects Di: 5
[14]; [17]
  Herbicidal effects Po: 5
[15]; [17]
  Herbicidal effects Ci: 5

## Cn1c(C(F)(F)F)ccc(-c2cc(S(=O)(=O)Cl)c(Cl)cc2F)c1=O [Compound No. 1-84, 3-(4-chloro-5-chlorosulfonyl-2-fluorophenyl)-1-methyl-6-trifluoromethyl-2(1H)-pyridone]
other
  melting point: 77 to 78 °C
[4]; [16]
  Herbicidal effects Ec: 5
[5]; [16]
  Herbicidal effects Am: 5
[6]; [16]
  Herbicidal effects Ch: 5
[7]; [16]
  Herbicidal effects Di: 5
[8]; [16]
  Herbicidal effects Po: 5
[9]; [16]
  Herbicidal effects Ci: 5

## Cn1c(C(F)(F)F)ccc(-c2cc([S+](C)[O-])c(Cl)cc2F)c1=O (centres unmarked) [Compound No. 1-88, 3-(4-chloro-2-fluoro-5-methylsulfinylphenyl)-1-methyl-6-trifluoromethyl-2(1H)-pyridone]
other
  melting point: 147 to 148 °C
[1]
  Herbicidal effects Sc: 5
[2]
  Herbicidal effects Ec: 5
[3]
  Herbicidal effects Mo: 5
[10]; [17]
  Herbicidal effects Ec: 4
[11]; [17]
  Herbicidal effects Am: 5
[12]; [17]
  Herbicidal effects Ch: 5
[13]; [17]
  Herbicidal effects Di: 5
[14]; [17]
  Herbicidal effects Po: 5
[15]; [17]
  Herbicidal effects Ci: 5

## C#CCn1c(=O)oc2cc(Cl)c(-c3ccc(C(F)(F)F)n(C)c3=O)cc21 [Compound No. 3-9, 3-[6-chloro-3-(2-propynyl)-benzoxazolin-2-on-5-yl]-1-methyl-6-trifluoromethyl-2(1H)-pyridone]
other
  melting point: 187 to 189 °C
[1]
  Herbicidal effects Sc: 5
[2]
  Herbicidal effects Ec: 5
[3]
  Herbicidal effects Mo: 5
[10]; [18]
  Herbicidal effects Ec: 5
[11]; [18]
  Herbicidal effects Am: 5
[12]; [18]
  Herbicidal effects Ch: 5
[13]; [18]
  Herbicidal effects Di: 5
[14]; [18]
  Herbicidal effects Po: 5
[15]; [18]
  Herbicidal effects Ci: 5

## CCOC(=O)c1cc2c(-c3ccc(C(F)(F)F)n(C)c3=O)c(F)cc(Cl)c2o1 [Compound No. 4-6, 3-(7-chloro-2-ethoxycarbonyl-5-fluorobenzofuran-4-yl)-1-methyl-6-trifluoromethyl-2-(1H)-pyridone]
other
  melting point: 118 to 120 °C
[1]
  Herbicidal effects Sc: 5
[2]
  Herbicidal effects Ec: 5
[3]
  Herbicidal effects Mo: 5
[4]; [19]
  Herbicidal effects Ec: 5
[5]; [19]
  Herbicidal effects Am: 5
[6]; [19]
  Herbicidal effects Ch: 5
[7]; [19]
  Herbicidal effects Di: 4
[8]; [19]
  Herbicidal effects Po: 5
[9]; [19]
  Herbicidal effects Ci: 5

## CCOC(=O)c1c(C(F)(F)F)[nH]cc(-c2cc(OC(C)C)c(Cl)cc2F)c1=O [Compound No. 6-57, 5-(4-chloro-2-fluoro-5-isopropoxyphenyl)-3-ethoxycarbonyl-2-trifluoromethyl-4(1H)-pyridone]
other
  melting point: 118 to 119 °C

## Cn1c(C(F)(F)F)cc(Cl)c(-c2ccc(Cl)cc2)c1=O [Compound No. 11-1, 3-(4-chlorophenyl)-4-chloro-1-methyl-6-trifluoromethyl-2(1H)-pyridone]
other
  melting point: 48 to 50 °C

## Cn1c(C(F)(F)F)cc(F)c(-c2ccc(Cl)cc2)c1=O [Compound No. 11-2, 3-(4-chlorophenyl)-4-fluoro-1-methyl-6-trifluoromethyl-2(1H)-pyridone]
other
  melting point: 120 to 122 °C

## Cn1c(C(F)(F)F)cc(Cl)c(-c2ccc(Cl)c(NS(C)(=O)=O)c2)c1=O [Compound No. 11-3, 3-(4-chloro-3-methylsulfonylaminophenyl)-4-chloro-1-methyl-6-trifluoromethyl-2(1H)-pyridone]
other
  melting point: 161 to 163 °C

## Cn1c(C(F)(F)F)cc(=O)c(-c2ccc(Cl)cc2)c1Cl [Compound No. 13-1, 3-(4-chlorophenyl)-2-chloro-1-methyl-6-trifluoromethyl-4(1H)-pyridone]
other
  melting point: 88 to 90 °C
